The source of these data is patent publication US11331310B2, “Method of treating cocaine addiction” (MyMD Pharmaceuticals (Florida), Inc., priority 2015, dated 2022).

One assay has as its system MPTP-induced toxicity. The settings on record: mice, cited from earlier work; for dopamine levels: MPTP.
Assay [1] concerns the target T1, MAO-A (Homo sapiens, UniProt P21397).
T1 construct: purchased
T1 sequence (P21397 1-527): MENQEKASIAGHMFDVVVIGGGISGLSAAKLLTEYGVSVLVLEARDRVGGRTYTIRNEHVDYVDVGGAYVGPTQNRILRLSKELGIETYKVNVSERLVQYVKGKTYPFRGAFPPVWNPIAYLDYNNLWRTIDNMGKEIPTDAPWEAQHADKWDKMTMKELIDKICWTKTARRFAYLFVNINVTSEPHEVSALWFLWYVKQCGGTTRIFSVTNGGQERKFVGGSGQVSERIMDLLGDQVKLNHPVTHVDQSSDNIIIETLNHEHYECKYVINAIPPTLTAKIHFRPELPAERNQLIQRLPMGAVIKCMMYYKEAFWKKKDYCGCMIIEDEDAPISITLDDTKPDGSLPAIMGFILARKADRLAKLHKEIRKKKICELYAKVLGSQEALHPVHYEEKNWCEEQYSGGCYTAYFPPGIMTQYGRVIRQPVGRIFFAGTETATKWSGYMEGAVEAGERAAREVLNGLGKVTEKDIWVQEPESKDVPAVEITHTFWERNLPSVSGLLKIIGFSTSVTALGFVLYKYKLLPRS
The note with it: cited from earlier work.

For assay [2], the target named is T2, MAO-B (Homo sapiens, UniProt P27338).
T2 sequence (P27338 1-520): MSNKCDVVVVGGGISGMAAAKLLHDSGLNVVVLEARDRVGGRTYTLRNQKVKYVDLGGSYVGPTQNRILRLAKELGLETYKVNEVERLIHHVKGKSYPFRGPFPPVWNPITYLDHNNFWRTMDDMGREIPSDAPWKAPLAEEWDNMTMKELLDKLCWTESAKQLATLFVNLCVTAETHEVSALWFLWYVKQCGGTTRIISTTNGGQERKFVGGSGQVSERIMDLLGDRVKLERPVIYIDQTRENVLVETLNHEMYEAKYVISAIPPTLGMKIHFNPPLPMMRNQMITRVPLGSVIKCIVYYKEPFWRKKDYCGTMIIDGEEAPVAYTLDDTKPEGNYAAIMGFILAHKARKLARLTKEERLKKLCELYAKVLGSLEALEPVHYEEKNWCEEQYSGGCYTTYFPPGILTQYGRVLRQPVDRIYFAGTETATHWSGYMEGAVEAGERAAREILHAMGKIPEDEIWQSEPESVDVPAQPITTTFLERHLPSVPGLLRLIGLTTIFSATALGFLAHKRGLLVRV
The settings on record: cited from earlier work.

Assay [3] in a line: Oxygen saturation in individuals after oral administration. Format: in vivo. The note with it: fourteen individuals, one hour after oral administration, 100-300 mg depending on body weight. The text has this:
Increasing oxygen saturation levels is believed to make isomyosmine particularly effective for treating substance addictions, including tobacco/nicotine addictions, as well as addictions to heroin, cocaine, opioids, methadone, d-methamphetamine, barbiturates, alcohol, benzodiazepines, amphetamines, or buprenorphine. For example, substances such as cocaine are known to cause blood vessels to constrict, resulting in increased heartrate and blood pressure and increased stress on the heart's ability to circulate blood and oxygen through the body. Increasing oxygen saturation levels may, among other things, counteract these types of effects associated with substance abuse by increasing blood oxygen levels, aiding in the treatment of the underlying addiction.

The target of assay [4] is T2, MAO-B. The assay is described as follows: MAO-Glo luminescent assay, MAO-B inhibition. Format: biochemical. The note with it: 1 hour at room temperature, compared among five alkaloids. An excerpt:
(§1) This example describes experiments for determining monoamine oxidase (MAO) inhibition for isomyosmine and other alkaloids. MAOs are enzymes located on the outer membrane of mitochondria and are involved in the catabolism of monoamine neurotransmitters. There are two well-characterized isoenzymes: MAO-A, which predominantly catabolizes serotonin and norepinephrine, and MAO-B, which preferentially catabolizes benzylamine and phenylethylamine. Dopamine and tyramine are metabolized by both isoforms.
(§2) To detect the activity of MAO, a luminescent method (MAO-Glo Assay kit, from Promega, Cat #V1401) was used. In this method, a MAO substrate (a derivative of beetle luciferin provided in the kit) is mixed with the compound to be tested (in this case, myosmine and control compounds). Then, the MAO enzymes (either A or B, purchased separately) are added to the mixture and incubated with the reaction for 1 hour at room temperature. The MAO enzymes, if not inhibited by the test compound, will convert the substrate into methyl ester luciferin. Finally, a luciferin detection reagent (provided by the kit) is added (20 minutes at room temperature) to stop the MAO reaction and convert methyl ester luciferin into D-luciferin. […] The luminescent signal is measured and recorded using a luminometer. […]

Assay [5] deals with T1, MAO-A. The assay is described as follows: MAO-Glo luminescent assay, MAO-A inhibition. The assay is classed as biochemical.
Description: as §1, §2

Entries after “also recorded” stand apart in the source; their conditions may differ.

A word on the inhibition: it is the drop in the measured response relative to a control, in per cent. Read a low inhibition as a weak effect.

As to `c1ccc(-c2ccncc2)cc1` [4-phenylpyridine], in the assay with MPTP-induced toxicity, the dopamine levels entry is given as “no significant effect” and the “decrease in dopamine metabolite levels induced by MPTP” value is “prevented the decrease”.
Regarding `c1cncc([C@@H]2CCCCN2)c1` [anabasine], the “MAO inhibitory effects against MAO-A” value on MAO-A [1] is “exhibited MAO inhibitory effects”. Moreover, on MAO-B [2], the “MAO inhibitory effects against MAO-B” value is listed as “exhibited MAO inhibitory effects”.
Consider `C1=CCC(c2cccnc2)NC1` (stereo not drawn) [anatabine], for which the “MAO inhibitory effects against MAO-A” value at MAO-A [1] is “exhibited MAO inhibitory effects”. In addition, the “MAO inhibitory effects against MAO-B” value at MAO-B [2] is reported as “exhibited MAO inhibitory effects”.
Take `C1=NC(c2cccnc2)CC1` (stereo not drawn) [isomyosmine, 3-(3,4-dihydro-2H-pyrrol-2-yl)-pyridine]: the “oxygen saturation (%)” value in assay [3] is listed as “dramatically increase”. The “inhibition of the activity of MAO-B (in words, FIG. 2)” value was “potent inhibitor” on MAO-B [4] and “most potent among the five alkaloids tested” against MAO-B [4] (listed as Isomyosmine). In addition, at MAO-A [5] (2 mM concentration (2,000 micromolar)), the inhibition at 2000 µM is about 50%. In addition, the “inhibition of the enzymatic activity of MAO-A (in words, curve position in FIG. 1)” value against MAO-A [5] (1 hour at room temperature, compared among five alkaloids) is recorded as “most potent of the five; also recorded: potent inhibitor”.
Consider `CN1CCCC1c1cccnc1` (stereo not drawn) [nicotine], for which, in the assay with MPTP-induced toxicity, the dopamine levels result is “no significant effect” and the “decrease in dopamine metabolite levels induced by MPTP” value is listed as “prevented the decrease”.
With `c1cncc([C@@H]2CCCN2)c1` [nornicotine], the “MAO inhibitory effects against MAO-A” value at MAO-A [1] is recorded as “exhibited MAO inhibitory effects”. The “MAO inhibitory effects against MAO-B” value at MAO-B [2] is “exhibited MAO inhibitory effects”.
